Results published in PubChem BioAssay (NCI).
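96-well plates; 48 h exposure; 5 concentrations. Endpoints by linear interpolation between flanking doses. Not reached: highest tested concentration assigned. TGI marks complete inhibition of growth.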

Legend:
Test in all cases: inhibition of tumour cell growth, NCI panel, 48 h
[1] = tested on: NCI/ADR-RES ovarian
[2] = tested on: HCT-116 colon
[3] = tested on: ACHN renal
[4] = tested on: MALME-3M melanoma
[5] = tested on: T-47D breast
[6] = tested on: EKVX NSCLC
[7] = tested on: OVCAR-5 ovarian
[8] = tested on: SNB-75 CNS
[9] = tested on: NCI-H522 lung
[10] = tested on: UACC-257 melanoma
[11] = tested on: MCF7 breast

| SMILES | TGI [1] [µM] | TGI [2] [µM] | TGI [3] [µM] | TGI [4] [µM] | TGI [5] [µM] | TGI [6] [µM] | TGI [7] [µM] | TGI [8] [µM] | TGI [9] [µM] | TGI [10] [µM] | TGI [11] [µM] |
| --- | --- | --- | --- | --- | --- | --- | --- | --- | --- | --- | --- |
| COC(=O)c1ccccc1CC1Cc2ccc3c(c2C1=O)CCCC3 (stereo not drawn) | > 84.9 | > 100 | > 100 | > 82.5 | > 78.1 | > 100 | > 100 | > 100 | > 100 | > 100 | > 100 |
| COCO[C@@H]1C[C@H]2C(=O)Nc3ccccc3C(=O)N2C1 | > 100 | > 100 | > 100 | > 100 | > 100 | > 100 | > 100 | > 100 | 37.5 | > 100 | > 100 |
| C[C@@H]1CC[C@]2(C(=O)O)CC[C@]3(C)C(=CC[C@@H]4[C@@]5(C)CC[C@H](O)C(C)(C)[C@@H]5CC[C@]43C)[C@@H]2[C@]1(C)O | 32.6 | 24.6 | 30.4 | 25.7 | 32.9 | 33 | 31.5 | 28.1 | 27.9 | 19.8 | 35.7 |
| O=C1CCCSC(=O)N1Cc1ccccc1 | > 100 | > 100 | > 100 | > 100 | > 100 | > 100 | > 100 | > 100 | > 100 | > 100 | > 100 |
| COc1cc2c(c(OC)c1OC)C(=O)[C@@H]1[C@H]2N1C(N)=O | > 100 | > 100 | > 100 | > 100 | > 100 | > 100 | > 100 | > 100 | > 100 | > 100 | > 100 |
| O=C1/C(=C/c2ccccc2)N=C2Sc3c(nc[nH]c3=O)N12 | > 100 | > 100 | > 100 | > 100 | > 100 | > 100 | > 100 | > 100 | > 100 | > 100 | > 100 |
| O=C1C=CC(=O)c2c1ccc1c3ccccc3n(CCCCCCCCCCCCn3c4ccccc4c4ccc5c(c43)C(=O)C=CC5=O)c21 | > 100 | > 100 | > 100 | > 100 | > 100 | > 100 | > 100 | > 100 | > 100 | > 100 | > 100 |
| C=CCN1C[C@H](C)N([C@H](c2ccc(C(=O)NC(CC)CC)cc2)c2cccc(OC)c2)C[C@H]1C | > 100 | > 100 | > 100 | 43.5 | > 100 | > 100 | > 100 | > 100 | 34.7 | 70.7 | > 100 |
